Entries after “also recorded” stand apart in the source; their conditions may differ.
Tests used:
[1] = test system: animals with hyperoxia-induced ALI; conditions: animals treated with Bardoxolone; cited from earlier work
rats exposed to ozone [2] = assay: Ozone-induced lung injury (1 ppm of ozone for 3 hours); format: in vivo, rat; conditions: 3 μmol/kg i.t. 24 hours prior to 1 ppm ozone for 3 hours, sacrificed four hrs later
Procedure: FIG. 4 depicts the effect of NRF2 activator Compound I on ozone-induced changes in lung wet to dry weight ratio (FIG. 4A) and relative mtDNA copy number (FIG. 4B). Rats were administered the NRF2 activator (3 μmol/kg i.t.) 24 hours prior to ozone exposure (1 ppm of ozone for 3 hours). Four hrs later the animals were sacrificed. All data represent means±S.E.M. (*, **, *** refer to p<0.05, 0.01 and 0.001, respectively).
Age-matched male Lewis rats (250-400 g, Charles River Breeding Laboratories, Wilmington, Mass.) were allowed free access to food and water. Animals were administered NRF2 compound via tracheal instillation 24 hours prior to oxidative insult. […]
In another study, rats were exposed to ozone (2.0 ppm) for a 3 hr period twice a week with a resting period of 2 days between treatments. […] Ozone was generated (Oxycycler ozonator (model# A84ZV, Biospherix Inc., Lacona, N.Y.) by passing room air through the ozonator at a rate of 50-75 cm^3/min, mixing it with filtered room air at a rate of 10 L/min, and flowing this sample into a Plexiglass chamber containing the rodents. Ozone, carbon dioxide and humidity levels in the chamber were constantly monitored (Ozone Monitor Model 450, Teledyne Advanced Pollution Instrumentation, Inc., Thousand Oaks, Calif.). The animals were euthanized as described above 24 hrs after the last exposure to ozone. See FIG. 4-5. […]

paraquat-treated rats = assay: PQ-induced acute lung injury model (tracheal instillation of paraquat); format: in vivo, rat
Source text: The model of PQ-induced increase in lung edema formation described in Rumsey, W., et al., (Mutagenesis. 2017, 32(3):343-353) is incorporated by reference in its entirety. In support of this invention, ALI was stimulated by the tracheal instillation of PQ which damages mtDNA in lung cells and provokes a loss of epithelial/endothelial integrity and edema formation.
Age-matched male Lewis rats (250-400 g, Charles River Breeding Laboratories, Wilmington, Mass.) were allowed free access to food and water. Animals were administered NRF2 compound via tracheal instillation 24 hours prior to oxidative insult.
For studies using PQ (or N,N′-dimethyl-4,4′-[…], Sigma Aldrich, St Louis, Mo.) as the toxin, aliquots were prepared in sterile phosphate-buffered saline (PBS) and instilled directly to the trachea of the rat while under isoflurane anesthesia. Rats were anesthetized in a small acrylic induction box with 2-5% isoflurane gas. When surgical anesthesia was obtained (assessed by loss of the righting reflex followed by use of the pedal withdrawal reflex), the rat was removed from the box and placed supine on a head up, tilted platform. The trachea was illuminated and either PQ or vehicle (300 μl, doses identified in figure legends) was directly instilled into the trachea, anterior to the primary bifurcation at the carina, using a blunt-tipped needle. The animal was returned to a recovery cage, where the righting reflex was regained in 2-3 minutes.
To monitor changes in airway mechanics, rats were placed into individual plethysmograph chambers (BUXCO Electronics, Troy, N.Y.). Fresh air was supplied by bias flow pumps to the chambers. Baseline respiratory (Penh) values were collected prior to administration of PQ and on succeeding days after administration of the agent. An average Penh was calculated for a period of 5 min where enhanced pause (Penh=[(expiratory time/relaxation time)−1]×(peak expiratory flow/peak inspiratory flow)) and relaxation time is the amount of time required for 70% of the tidal volume to be expired.
For measurements of edema formation in the lungs, the tissue was excised and weighed gravimetrically. A portion was dried overnight in an oven at […]. and weighed for dry weight.
In some studies, bronchoalveolar lavage was performed to identify the immune cells infiltrating the lung in response to the toxicant. After the animals were euthanized (Fatal Plus, 100 mg/kg i.p.), the trachea was surgically exposed and a blunt-tipped needle was inserted into the trachea for administration of lavage fluid (5×5 ml Dulbecco's phosphate buffered saline, PBS). The lavage fluid was collected, placed on ice and centrifuged (3000 rpm×10 min, Beckman-Coulter, Danvers, Mass.). Supernatant was aspirated and frozen whereas the pellet was resuspended in 5 ml of PBS. An aliquot (100 μl) was centrifuged (300 rpm×5 min, cytospin, Thermo-Shandon, Waltham, Mass.) and a separate sample prepared as 1:5 dilution for total cell counts using a hemocytometer. Aliquots of cells were placed on slides and stained (Kwik-Diff-Quick, Thermo-Shandon, Waltham, Mass.) according to manufacturer's instructions. At least 200 cells were counted and percentages of different cell types were calculated (macrophages and neutrophils).
For extraction of either RNA or DNA, the tissue was added to lysis buffer (Kingfisher DNA or RNA extraction kit, Thermo Fisher Scientific, Waltham, Mass.) and the samples were processed according to the manufacturer's instructions. The nucleotide quantities were determined with respective Qubit kits (Thermo Fisher, Waltham, Mass.). For measurement of mtDNA copy number by quantitative real time PCR, nuclear and mitochondrial primer sets (1 pmol/μl), and 2× SYBR green master mix (Life Technologies, Waltham, Mass.) were added to 50 ng of DNA combined with water (total 20 ul). […]

rats exposed to ozone [3] = assay: Severe ozone exposure (faulty ventilation, ozone above intended 1 ppm): death and glutathione; format: in vivo, rat
Source text: FIG. 5 depicts the protection offered by NRF2 activator Compound I against ozone-induced death (FIG. 5A) and loss of glutathione (FIG. 5B). Due to an unknown faulty ventilation system, ozone in the chamber built up to levels (unable to quantify) above those normally used in other studies. The intended exposure was 1 ppm. For those animals that survived, tissue values of NRF2-related parameters were examined 24 hrs. after ozone exposure. In addition, animals exposed to ozone within the control group were combined. All data represent means±S.E.M. (*, **, *** refer to p<0.05, 0.01 and 0.001, respectively). […]
In another study, rats were exposed to ozone (2.0 ppm) for a 3 hr period twice a week with a resting period of 2 days between treatments. […] Ozone was generated (Oxycycler ozonator (model# A84ZV, Biospherix Inc., Lacona, N.Y.) by passing room air through the ozonator at a rate of 50-75 cm^3/min, mixing it with filtered room air at a rate of 10 L/min, and flowing this sample into a Plexiglass chamber containing the rodents. Ozone, carbon dioxide and humidity levels in the chamber were constantly monitored (Ozone Monitor Model 450, Teledyne Advanced Pollution Instrumentation, Inc., Thousand Oaks, Calif.). The animals were euthanized as described above 24 hrs after the last exposure to ozone. See FIG. 4-5.

mice exposed to ozone = assay: Repeated ozone exposure, alveolar barrier breakdown (serum surfactant protein-D, mtDNA); format: in vivo, mouse; conditions: FIG. 6
Procedure: Mice were exposed to ozone (1.5 ppm) for 3 hrs, twice per week for 3 weeks. Compound 1 was administered for 5 days/week, with the first dose administered 1 hour prior to first ozone administration. Blood/serum was collected 2 hrs after the final ozone exposure. Surfactant protein-D was measured using a commercially available ELISA kit. All data represent mean+/−S.E.M.
For determination of mtDNA damage (21), 15 ng of DNA in long chain PCR buffer was coupled with appropriate long and short primers for murine tissues. The reaction mixture was essentially the same for both long and short runs with the exception that the [Mg++] was 1.2 and 1.1 mM, respectively. For mouse tissues, the following thermocycler conditions were utilized: 94° C.×2 min followed by 19 cycles at 94° C.×15 sec, 64° C.×30 sec, 68° C.×8 min and finished at 72° C.×7 min; 94° C.×2 min, 94° C.×15 sec, 60° C.×30 sec, 72° C.×45 sec, and finished at 72° C.×7 min for the long and short PCR, respectively. The long and short primer sequences for mouse;
For both species, the long and short PCR products were then diluted 1:10 with Tris EDTA buffer containing 5 μl/ml of Pico Green (Molecular Probes, Invitrogen, Carlsbad Calif.) and fluorescence was monitored (485 nm excitation/528 nm emission, Envision Perkin Elmer, Waltham, Mass.). The replicates for each sample were averaged, the long primer was subtracted from the short primer, and transformed into percent of control using normalization functions (GraphPad Prism v6.0, La Jolla, Calif.). The data were calculated to reflect an increase in damage by subtracting the long primer from the short primer, rather than the opposite which would show the reduction of signal.
Surfactant protein-D (SP-D) was measured using a commercially available kit (Mouse Quantikine SP-D, R&D Systems #MSFPDO, Minneapolis, Minn.). Absorbances were monitored at 450 and 540 nm using a microplate spectrophotometer (Powerwave, BioTek, Winooski, Vt.) with Gen5 software (version 2.03.Ink). […] Degradation or breakdown of alveolar barrier and leakage of water into the alveolar is measured by wet:dry ratio. […]

[4] = test system: murine model of PQ-induced ALI; conditions: treatment with DNasel; cited from earlier work
[5] = relative to the PQ treated vehicle control animals, FIG. 3

Molecule: CC1(C)CC[C@]2(C(=O)O)CC[C@]3(C)[C@H](C(=O)C=C4[C@@]5(C)C=C(C#N)C(=O)C(C)(C)[C@@H]5CC[C@]43C)[C@@H]2C1 [Bardoxolone]
- protection from hyperoxia-induced ALI [1]: protected them from hyperoxia-induced ALI

Molecule: CC[C@@H]1CN(Cc2cc([C@H](CC(=O)O)c3ccc4c(nnn4CC)c3C)ccc2C)S(=O)(=O)c2cccnc2O1 [Compound I, (S)-3-(3-(((R)-4-ethyl-1,1-dioxido-3,4-dihydro-2H-pyrido[2,3-b][1,4,5]oxathiazepin-2-yl)methyl)-4-methylphenyl)-3-(1-ethyl-4-methyl-1H-benzo[d][1,2,3]triazol-5-yl)propanoic acid]
- ozone-induced edema formation (lung wet to dry weight ratio) (rats exposed to ozone [2]; FIG. 4A): protected
- ozone-induced mtDNA damage (relative mtDNA copy number) (rats exposed to ozone [2]; FIG. 4B): protected
- inflammatory immune cells in bronchoalveolar lavage fluid (macrophages and neutrophils) (paraquat-treated rats; paraquat-treated rats, FIG. 2): decreased numbers of immune cells in the bronchoalveolar lavage fluid; also recorded: reduction in inflammatory immune cells
- NQO1 activity (NRF2-mediated gene expression) (paraquat-treated rats; rat lung, PQ-treated, FIG. 3B): stimulated an upregulation of NQO1 activity
- DNA oxidation (8-OHdG levels) (paraquat-treated rats; rat lung, PQ-treated, FIG. 3C): attenuating the impact of PQ on DNA oxidation
- PQ-mediated mtDNA damage (relative mtDNA copy number) (paraquat-treated rats; rat lung, FIG. 3A): blockade of mtDNA damage; also recorded: prevented
- lung function, expressed as Penh (paraquat-treated rats; rats, Compound I suspension i.t. 24 hrs prior to PQ (0.05 mg/kg i.t.), FIG. 1A): improves lung function
- lung edema formation, lung wet:dry weight ratio (paraquat-treated rats; rats, Compound I suspension i.t. 24 hrs prior to PQ (0.05 mg/kg i.t.), FIG. 1B): maintenance of the lung wet:dry ratio; also recorded: protecting against the PQ-induced increase in lung edema formation
- TXNRD1 gene expression (paraquat-treated rats; [5]): exception
- expression of other NRF2 genes (GCLC, HO-1, etc.) (paraquat-treated rats; [5]): up-regulated
- ozone-induced death (survival) (rats exposed to ozone [3]; severe ozone exposure, level unable to quantify (intended 1 ppm), FIG. 5A): protection; also recorded: survive the lethal insult
- ozone-induced loss of glutathione (rats exposed to ozone [3]; surviving animals, tissue 24 hrs after ozone exposure, FIG. 5B): protection
- degradation or breakdown of the alveolar barrier (mice exposed to ozone; mice, ozone 1.5 ppm 3 hrs twice per week for 3 weeks): prevented; also recorded: protective effect
- surfactant D (serum surfactant protein-D), biomarker of epithelial/alveolar barrier integrity (mice exposed to ozone; mice, ozone 1.5 ppm 3 hrs twice per week for 3 weeks, dosing 5 days/week, serum 2 hrs after final ozone exposure): dose dependently prevented
- changes in mtDNA (mice exposed to ozone; repeated ozone exposures): dose dependently prevented

B1: DNasel: DNasel, presumably targeting expulsed mtDNA (protein, UniProt P24855 23-282, looked up)
Deoxyribonuclease-1: LKIAAFNIQTFGETKMSNATLVSYIVQILSRYDIALVQEVRDSHLTAVGKLLDNLNQDAPDTYHYVVSEPLGRNSYKERYLFVYRPDQVSAVDSYYYDDGCEPCGNDTFNREPAIVRFFSRFTEVREFAIVPLHAAPGDAVAEIDALYDVYLDVQEKWGLEDVMLMGDFNAGCSYVRPSQWSSIRLWTSPTFQWLIPDSADTTATPTHCAYDRIVVAGMLLRGAVVPDSALPFNFQAAYGLSDQLAQAISDHYPVEVMLK
- PQ-induced lung injury and survival [4]: Protection from PQ-induced lung injury and survival

Source: patent US20210177861A1, “NRF2 ACTIVATOR FOR THE TREATMENT OF ACUTE LUNG INJURY, ACUTE RESPIRATORY DISTRESS SYNDROME AND MULTIPLE ORGAN DYSFUNCTION SYNDROME” (GLAXOSMITHKLINE INTELLECTUAL PROPERTY DEVELOPMENT LIMITED, priority 2017, published 2021)
